# Experiments:
# myocardial ischemia = assay: imaging agent 1 and ^82Rb PET versus ^99mTc sestamibi SPECT, perfusion defect assessment (phase II); assay type: in vivo, human
# Procedure: Twenty-six patients (20 men) who underwent ^99mTc sestamibi SPECT and imaging agent 1 PET within 6 months at a single center in a phase II clinical trial were compared to 23 patients (matched by summed difference score (SDS) on SPECT) who underwent ^99mTc sestamibi SPECT and ^82Rb PET (25-50 mCi) within 6 months without change in clinical state. PET was performed with imaging agent 1 at rest (2.3-3.9 mCi) followed 60 min or 24 h later with exercise or adenosine stress (7.3-8.6 mCi). Perfusion defects on SPECT and PET were assessed by computer-assisted visual interpretation, using the standard 17 segment, 5 point-scoring model (0=normal; 4=absent uptake). The extent and severity of ischemia (SDS) was derived from the difference between summed stress score (SSS) and summed rest scores (SRS).
# Twenty six patients (20 men) underwent SPECT and PET within 6-months. PET was performed with imaging agent 1 at rest (2.3-3.9 mCi) followed 60 min (n=18) or 24 h (n=8) later with exercise (n=16) or adenosine (n=10) stress (7.3-8.6 mCi). Image quality of SPECT and PET was consensually assessed by 2 independent blinded readers and graded as excellent, good, or fair. Stress and rest perfusion defects on SPECT and PET were assessed by the same readers by computer-assisted visual interpretation, using the standard 17 segment, 5 point-scoring model (0=normal; 4=absent uptake). The extent and severity of ischemia (summed difference score (SDS)) was derived from the difference between summed stress (SSS) and summed rest scores (SRS). Image quality with PET was excellent in 24 and good in 2 patients. In contrast, there were 7 excellent, 18 good, and 1 fair quality study, p<0.001 by SPECT. In 14 patients with abnormal SPECT (SSS≥4), mean SDS was greater with PET than with SPECT (9.6±1.8 vs. 5.4±0.7, p=0.02). In all 12 patients with normal SPECT (SSS<4), SDS was zero by PET and SPECT.
# normal rats and dogs = details: cited from earlier work
# normal subjects = assay: human safety, dosimetry, biodistribution and rest-stress myocardial imaging in normal subjects; assay type: in vivo
# Procedure: 25 normal subjects were enrolled in 2 studies: 13 received 222 MBq I.V. At rest (R) only and 12 more subjects received 94 MBq at R and, on a second day, 124 MBq at peak adenosine stress (Adeno, n=6) or at peak treadmill exercise (Ex, n=6). Physical exam, laboratory, vital signs, ECG, and EEG were monitored pre- and post-injection. Myocardial (Myo), liver, blood pool and lung Standardized Uptake Values (SUV) were determined from sequential PET images over time. Mean dose for various organs and mean effective dose (ED in mSv/MBq) were estimated.
smiles,measurement,setting,value
"CC(C)(C)n1ncc(OCc2ccc(COCC[18F])cc2)c(Cl)c1=O [imaging agent 1, 2-t-butyl-4-chloro-5-[4-(2-(^18F)fluoroethoxymethyl)-benzyloxy]-2H-pyridazin-3-1]",SDS,myocardial ischemia; 12 patients with normal SPECT (SSS<4),zero
same,mean SDS (summed difference score),myocardial ischemia; 14 patients with abnormal SPECT (SSS≥4),9.6±1.8
same,"image quality excellent, number of patients","myocardial ischemia; 26 patients, 2 blinded readers",24
same,"image quality good, number of patients","myocardial ischemia; 26 patients, 2 blinded readers",2
same,"differences in SDS, PET compared to SPECT",myocardial ischemia; patients with normal SPECT (SSS<4),no differences
same,"concentration (dose) inducing transit clinical signs (rapid and labored breathing, decreased activity, hunched posture, urination)",normal rats and dogs,≥ 0.2 mg/kg
same,dose at which these clinical signs were not observed,normal rats and dogs,≤ 0.1 mg/kg
same,adverse events,normal subjects; 25 normal subjects,no adverse events related to the tracer
same,Adeno Myo SUV,normal subjects; 10 mins,10.5 ± 1.5
same,Adeno Myo/liver,normal subjects; 10 mins,1.9 ± 0.6
same,Exercise Myo SUV,normal subjects; 10 mins,6.2 ± 2.1
same,Exercise Myo/liver,normal subjects; 10 mins,28.0 ± 33.6
same,Rest Myo SUV,normal subjects; 10 mins,3.9 ± 0.9
same,Rest Myo/liver,normal subjects; 10 mins,1.0 ± 0.3
same,Adeno Myo SUV,normal subjects; 30 mins,10.8 ± 2.1
same,Adeno Myo/liver,normal subjects; 30 mins,2.0 ± 0.5
same,Exercise Myo SUV,normal subjects; 30 mins,5.5 ± 1.0
same,Exercise Myo/liver,normal subjects; 30 mins,5.6 ± 1.0
same,Rest Myo SUV,normal subjects; 30 mins,4.2 ± 1.1
same,Rest Myo/liver,normal subjects; 30 mins,0.9 ± 0.2
same,Adeno Myo SUV,normal subjects; 60 mins,10.3 ± 2.1
same,Adeno Myo/liver,normal subjects; 60 mins,2.2 ± 0.5
same,Exercise Myo SUV,normal subjects; 60 mins,5.1 ± 0.9
same,Exercise Myo/liver,normal subjects; 60 mins,5.6 ± 1.3
same,Rest Myo SUV,normal subjects; 60 mins,4.5 ± 1.2
same,Rest Myo/liver,normal subjects; 60 mins,1.1 ± 0.2
same,Adeno Myo SUV,normal subjects; 90 mins,9.6 ± 2.1
same,Adeno Myo/liver,normal subjects; 90 mins,2.6 ± 0.5
same,Exercise Myo SUV,normal subjects; 90 mins,4.9 ± 0.9
same,Exercise Myo/liver,normal subjects; 90 mins,5.8 ± 1.5
same,Rest Myo SUV,normal subjects; 90 mins,4.3 ± 1.3
same,Rest Myo/liver,normal subjects; 90 mins,1.4 ± 0.2
same,Adeno Myo SUV,normal subjects; 149 mins,8.4 ± 2.1
same,Adeno Myo/liver,normal subjects; 149 mins,3.8 ± 1.0
same,Exercise Myo SUV,normal subjects; 149 mins,4.5 ± 0.8
same,Exercise Myo/liver,normal subjects; 149 mins,5.5 ± 1.5
same,Rest Myo SUV,normal subjects; 149 mins,4.1 ± 1.4
same,Rest Myo/liver,normal subjects; 149 mins,2.1 ± 0.3
same,mean effective dose (ED),normal subjects; at rest (R),0.019 mSv/MBq
same,mean effective dose (ED),normal subjects; with adenosine stress (Adeno),0.019 mSv/MBq
same,mean effective dose (ED),normal subjects; with exercise (Ex),0.015 mSv/MBq
